Test results as given in patent publication US20140154180A1, “Pharmacophores for Amyloid Fibers Involved in Alzheimer's Disease” (The Regents of the University of California, priority 2011, published 2014).
Entries after “also recorded” stand apart in the source; their conditions may differ.

Tests used:
[1] = test system: Aβ toxicity to PC12 cells; assay: MTT cell viability assay, rescue from Abeta toxicity, PC12 cells; assay type: cell-based; conditions: Table 7; scaled cell survival rate, buffer-treated cell 100%, Abeta-treated cell 0%; Abeta 0.5 μM; 12 h incubation
Description: (§1) We tested candidate compounds by the MTT-based cell proliferation/viability assay, as described on the ATCC web site. Briefly, the ATCC MTT Cell Proliferation Assay quantitates the reduction of the yellow tetrazolium salt (MTT) in response to an external factor, such as treatment with a compound of the present invention, as a measure of a cell population's response to the external factor. The assay measures the cell proliferation rate and conversely, when metabolic events lead to apoptosis or necrosis, the reduction in cell viability. In our tests, Hela and PC12 cell lines were used to assess the toxic effect of Abeta protein. Abeta at 0.5 μM was a positive control. The small molecule inhibitors were added to samples with different concentrations (such as 2.5 μM). After 12 h incubation at room temperature, the absorbance of reduced MIT was measured at 570 nm. Each of the experiments was repeated 3 times with 4 replicates per sample per concentration. Our MTT cell viability assay quantified the percentage of survival cells upon the treatment of the mixture of Abeta and compound inhibitors. The rescuing percentage of each compound was calculated by normalizing the survival percentage using the buffer-treated cell as 100% viability and Abeta-treated cell as 0% viability.

[2] = test system: Aβ toxicity to Hela cells; assay: MTT cell viability assay, rescue from Abeta toxicity, Hela cells; assay type: cell-based; conditions: Table 7; scaled cell survival rate, buffer-treated cell 100%, Abeta-treated cell 0%; Abeta 0.5 μM; 12 h incubation
Description: as §1

Aβ fibrillation = Aβ fibrillation (Homo sapiens, UniProt P05067); assay: Electron microscopy (EM) of Aβ with BAF compounds; conditions: Aβ with compound right before adding to the cell medium
[3] = target: T1, KLVFFA (SEQ ID NO: 1) fibers (Homo sapiens, UniProt P05067); assay: 1H NMR titration with KLVFFA fibers; assay type: binding; conditions: compound 100 μM, increasing KLVFFA fiber concentrations, 283 K; read-out: apparent dissociation constant (Kd)
T1 construct: host or cells: chemically synthesized peptide
Protocol: As a validation of our computational approach, we used nuclear magnetic resonance (NMR) to characterize the interactions between our BAF compounds and KLVFFA (SEQ ID NO: 1) and Aβ fibers.
NMR samples contained 550 μL of designed compounds were added from 1 mM stocks in H2O to a final concentration of 100 μM. Fibrillar KLVFFA (SEQ ID NO: 1) and Abeta were added at the indicated concentrations. 500 MHz ^1H NMR spectra were collected on a Bruker DRX500 at 283 K. H2O resonance was suppressed through presaturation. Spectra were processed with XWINNMR 3.6.

[4] = target: T2, VQIVYK (SEQ ID NO: 2) segment from the tau protein (Homo sapiens, UniProt P10636); assay: LC-MSMS analysis of co-crystals, molar ratio, VQIVYK
T2 construct: host or cells: chemically synthesized peptide
Description: Liquid chromatography tandem mass spectrometry (LC-MSMS) was used to measure the molar ratios of the peptide segments and the small molecules within the crystals. Authentic samples of the peptides and each of the small molecules were used to prepare standard response curves. Crystals from each of the four mixtures of peptides and small compounds were individually picked (using a sharpened glass capillary) and re-dissolved in 5%-10% acetonitrile. The samples were divided into two aliquots, one for the peptide analyses and the other for the small molecule analyses, and the amount of each component in the samples was interpolated using the standard curves.
Peptide standards (dry powder of VQIVYK (SEQ ID NO: 2) and KLVFFA (SEQ ID NO: 1)) were dissolved in water and prepared in concentrations ranging from 0.05 μM to 0.01 mM in 0.1% TFA. […] Data were collected in the positive ion multiple reaction monitoring (MRM) mode in which the intensity of specific parent→fragment ion transitions were recorded (VQIVYK (SEQ ID NO: 2), m/z 749.5→341.3, 749.5→409.4, 749.5→440.3, 749.5→522.5; KLVFFA (SEQ ID NO: 1), 724.4→84, 724.4→488.3, 362.7→84, 362.7→120.1). […]

[5] = test system: Aβ toxicity to Hela and PC12 cell lines; assay: MTT cell viability assay, Abeta toxicity, cell line not given; assay type: cell-based; conditions: FIG. 17B
Description: as §1

Chain of Aβ fibrillation (P05067 672-713): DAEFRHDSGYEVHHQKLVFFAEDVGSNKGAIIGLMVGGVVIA

| inhibition of Aβ fibrillation (EM) (Aβ fibrillation) | Kd [3] | VQIVYK segments for each small molecule [4] | SMILES | Rescuing Percentage PC12 [1] | Rescuing Percentage Hela [2] | dose dependence of reduction of Aβ cytotoxicity [5] |
| --- | --- | --- | --- | --- | --- | --- |
| do not inhibit Aβ fibrillation | ~24 µM | – | Cc1ccc(O)c(N=Nc2c(O)cc(S(=O)(=O)O)c3ccccc23)c1 [BAF8] | 25.1% | 27.1% | – |
| do not inhibit Aβ fibrillation | ~12 µM | – | O=C1OC2(c3ccccc31)c1cc(Br)c(O)c(Br)c1Oc1c2cc(Br)c(O)c1Br [BAF1] | 44.3% | 41.3% | – |
| – | – | ~400 | CC(=C(C#N)C#N)c1ccc2cc(N(C)C)ccc2c1 [DDNP, 1,1-Dicyano-2-[6-(dimethylamino)naphthalen-2-yl]propene] | – | – | – |
| – | ~43 µM | – | O=S(=O)(O)c1cc(S(=O)(=O)O)c2c(/N=N/c3ccccc3)c(O)ccc2c1 [Orange-G, reference compound] | – | – | – |
| – | – | – | O=c1c(O)c(-c2cc(O)c(O)c(O)c2)oc2cc(O)cc(O)c12 [BAF26] | 85.5% | 51.4% | – |
| – | – | ~100 | COc1cc(/C=C/C(=O)CC(=O)/C=C/c2ccc(O)c(OC)c2)ccc1O [curcumin, Curcumin] | – | – | – |

| SMILES | inhibition of Aβ fibrillation (EM) (Aβ fibrillation) | Kd [3] | VQIVYK segments for each small molecule [4] | Rescuing Percentage PC12 [1] | Rescuing Percentage Hela [2] | dose dependence of reduction of Aβ cytotoxicity [5] |
| --- | --- | --- | --- | --- | --- | --- |
| CCCN1CCc2cc(O)cc3c2C1Cc1ccc(O)c(O)c1-3 (centres unmarked) [BAF31] | do not inhibit Aβ fibrillation | – | – | 92.6% | 83.0% | reduce Aβ cytotoxicity in a dose dependent manner; also recorded: reduce Aβ cyto-toxicity in a dose dependent manner |
